Source: patent US4272530A, “Δ^1,3,5(10) -Estratrienes” (Roussel Uclaf, priority 1977, dated 1981)

Key:
female mice = test: estrogenic (uterotrophic) activity by the method of Rubin, uterus weight; type: in vivo; conditions: for Weight of uterus: female mice 19-21 days old, killed on 4th day, control 11.4 ± 0.5
Protocol: The estrogenic activity of the product of Example 1 was also determined by the method of Rubin [Endocrinology, Vol. 49 (1951), p. 429] in which female mice 19-21 days old received once a day for 3 days a subcutaneous injection of the test product. The animals were killed on the 4th day and the uterus was removed, dissected and weighed. The test product was administered in a volume of 0.1 ml of oily solution at doses of 0.01γ, 0.03γ, 0.09γ and 0.27γ.

[1] = biological target: T1, specific uterine reception of estradiol (uterus cytosol) (Mus musculus, UniProt P19785); test: hormonal receptor method of Raynaud et al.: displacement of tritiated estradiol in uterus cytosol; type: binding, mice
T1 construct: the uterus was removed and homogenized in a buffered solution; from tissue; host or cells: uterus cytosol (105,000 g supernatant) of immature female mice, 18 to 21 days old
T1 sequence (P19785 1-599): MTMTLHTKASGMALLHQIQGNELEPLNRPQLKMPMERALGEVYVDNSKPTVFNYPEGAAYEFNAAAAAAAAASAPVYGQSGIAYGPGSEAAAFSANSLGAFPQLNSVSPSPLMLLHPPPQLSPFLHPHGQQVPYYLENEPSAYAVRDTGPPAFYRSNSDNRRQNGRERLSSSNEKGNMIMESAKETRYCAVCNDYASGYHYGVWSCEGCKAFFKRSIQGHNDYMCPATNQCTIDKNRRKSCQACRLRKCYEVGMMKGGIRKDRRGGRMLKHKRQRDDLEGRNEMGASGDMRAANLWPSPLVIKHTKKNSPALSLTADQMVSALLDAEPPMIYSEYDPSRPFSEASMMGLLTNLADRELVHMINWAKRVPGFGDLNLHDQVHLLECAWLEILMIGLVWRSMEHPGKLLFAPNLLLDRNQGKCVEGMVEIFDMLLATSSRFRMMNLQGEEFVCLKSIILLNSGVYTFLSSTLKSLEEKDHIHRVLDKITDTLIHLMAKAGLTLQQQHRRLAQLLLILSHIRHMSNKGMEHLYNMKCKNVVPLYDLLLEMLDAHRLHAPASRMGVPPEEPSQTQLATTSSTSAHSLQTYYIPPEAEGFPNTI
Protocol: The estrogenic activity was determined for 11β-vinyl-17α-ethynyl-^1,3,5(10) -estratriene-3,17β-diol was determined by the hormonal receptor method of Raynaud et al. [J. Ster. Biochem., Vol. 6 (1975), p. 615-622]. Immature female mice aged 18 to 21 days old were sacrificed and the uterus was removed and homogenized in a buffered solution of […] of tromethamine, 0.25 M of saccharose and a pH of 7.4 with hydrochloric acid. The homogenate was centrifuged at 105,000 g per hour and the surnageant or cytosol was adjusted to a dilution of 1/25 (weight/volume). […] The radioactivity of the tritiated product R was determined in 2 hours by the technique of adsorption on carbondextran (1.25%-0.625%). The plots were the curves representing the percentage of tritiated product R as a function of the log of the concentration of cold product R or the test product and the I50 straight line parallel to the axis of the abcisses and ordinates [formula] B/T max. is the percentage of tied tritiated product R when the product is not added and B/T min. is the percentage of tied tritiated product R when the maximum amount of cold product R is added.

## C#C[C@]1(O)CC[C@H]2[C@@H]3CCc4cc(O)ccc4[C@H]3[C@@H](C=C)C[C@@]21C [Example 1, 11β-vinyl-17α-ethynyl-Δ^1,3,5(10) -estratriene-3,17β-diol]
Female mice; conclusion from Table IV
  uterotrophic activity: clear uterotrophic activity
Female mice; dose 0.01γ subcutaneous once a day for 3 days
  Weight of uterus: 25.8 ± 1.7 mg
Female mice; dose 0.03γ subcutaneous once a day for 3 days
  Weight of uterus: 90.1 ± 5.7 mg
Female mice; dose 0.09γ subcutaneous once a day for 3 days
  Weight of uterus: 128.8 ± 12.1 mg
Female mice; dose 0.27γ subcutaneous once a day for 3 days
  Weight of uterus: 107.6 ± 7.4 mg
[1]; conclusion from Table III
  affinity for specific uterine reception of estradiol compared with estradiol: greater affinity for specific uterine reception of estradiol than estradiol
[1]; immature female mouse uterus cytosol, tritiated estradiol, 25° C. for 5 hours, estradiol = 100
  ARL (relative affinity of the test product): 240
